This note sets out measurements from a melting point compilation (Tetko et al.; mined from patent text by program, amines drawn as free bases though some values may be those of a salt).

Some results are limits rather than exact numbers.

By melting point is commonly meant the temperature, or range, at which the solid turns liquid. `O=C(O)[C@H](Cc1c[nH]c2ccccc12)NC(=O)[C@@H]1C[C@H](S)CN1S(=O)(=O)c1ccc2ccccc2c1` had a melting point of 130 °C. Turning to `O=C(N[C@H](Cc1ccccc1)[C@H](O)C(=O)O)c1ccccc1`, the melting point fell in the range of 172 to 173 °C. With `CCCCCCCNC(=O)Nc1ccccc1CCc1cc(C(C)(C)C)c(O)c(C(C)(C)C)c1` the figure was 100 °C; with `CC12CCC3c4ccc(O)cc4C(O)C(Sc4ccc(O)cc4)C3C1CCC2O` (stereo not drawn), 220 to 225 °C. For the compound `CC(C)(C)[C@H](COC(=O)OCc1ccccc1)NC(=O)[C@@H](CC(=O)OCc1ccccc1)n1ccc(-c2ccc(-c3ccncc3)cc2)c1`, the melting point was in the range of 74 to 76 °C. As to `CN1CC[C@@]2(c3cccc(O)c3)C[C@@H](N=[N+]=[N-])CC[C@H]2C1` (racemic), the melting point lay within 139 to 140 °C. The compound `COc1ccc(C(=NOC(C)=O)c2ccccc2F)c(O)c1C` registered a melting point of 83 to 86 °C. Consider `CC(=O)Nc1cccc(NC(=O)C=C(C)C)c1`, for which the melting point was in the range of 144 to 148 °C. For `CC(=O)OC1CSC(Oc2cncc(-c3ccc(C)c(F)c3)c2)C(OC(C)=O)C1OC(C)=O` (stereo not drawn), the melting point was found to be 159 °C. With `CNC(=NC#N)NCCSCc1ccc(CN)o1` the figure was 80 to 82 °C; with `Cc1cc(N2NCCNC2=O)cc(Cl)c1Cc1ccc(Cl)cc1`, 197 to 198 °C; with `N#Cc1ccc(Sc2cccc3cnccc23)c(Cl)c1`, 126 to 128 °C. Turning to `COC(=O)c1c(NC(C)C)cccc1S(=O)(=O)NC(C)(C)C`, the melting point is 110 to 112 °C. For the compound `CC(C(=O)O)c1ccc2c(c1)C(=O)c1cc(Cl)ccc1CS2` (stereo not drawn), the melting point lay in the range of 128 to 131 °C.

As to `CC(=O)Nc1ccc2c(c1)CC1CC(=O)NN=C21` (single isomer, unassigned; (-)), the melting point came out at 307 °C. With `Cc1nc2c(N)nc3ccccc3c2n1CCS(C)(=O)=O` the figure was 242 to 245 °C. In the case of `Cc1cc(OCC(O)CCl)c2cn[nH]c2c1` (stereo not drawn), the melting point fell in the range of 171 to 172 °C.

For the compound `CN(N=Cc1ccccc1)C(=NC(=O)CN1C(=O)c2ccccc2C1=O)NCCCOc1cccc(CN2CCCCC2)c1`, the melting point is 84.5 °C. For the compound `CCCCn1c(=O)c2cn(S(=O)(=O)c3cc(Cl)c(Cl)s3)nc2n(CCCC)c1=O`, the melting point fell in the range of 181 to 182 °C. Consider `CC#Cc1ccc2[nH]c(C(=O)OCC)cc2c1`, for which the melting point was 166 to 167 °C. `COc1ccc2nccc(CCNC(C)=O)c2c1` returned a melting point of 113 to 115 °C. Turning to `CC(C)C(=O)Nc1cccc(-c2ccnc3c(C(=O)c4cccs4)cnn23)c1`, the melting point was 180 to 181 °C. With `COc1cccc(C(=O)NC2(C(=O)c3cc(C)cc(C)c3)CC2)c1C` the figure was 174 to 176 °C; with `COc1ccc(C(C#Cc2ccccc2)CNC(=O)C(F)(F)F)cc1OC1CCCC1` (racemic), 143 to 145 °C. For the compound `COC(=O)C(O)c1ccc2c(c1)OCO2` (stereo not drawn), the melting point is 93 to 95 °C.

The compound `CCc1ccc(C(=O)O)c(O)n1` gave a melting point of 190 to 193 °C. In the case of `NC(N)=Nc1nc(-c2csc(CNC(=O)CO)n2)cs1`, the melting point stood at 239 °C. `CCCCCCCCCCCCCCCCN1C(=O)C2=C(c3cccs3)N(CCCCCCCCCCCCCCCC)C(=O)C2=C1c1cccs1`: the melting point lay in the range of 124 to 125 °C. In turn, `CCc1cc2c(Sc3ccc(C)cc3)ncnc2s1` came in with a melting point of 56 to 58 °C. Take `O=C1c2ccccc2C(O)(C(F)(F)F)c2ccccc21`: the melting point lay within 153 to 155 °C. For `CC(C)(C)C(NC(=O)c1ccc(Br)cc1)NC(=NC#N)Nc1cccnc1` (stereo not drawn), the melting point is 180 to 181 °C.

For the compound `CN1C(=O)CC[C@]2(C)c3ccc(Sc4ccc5c([N+](=O)[O-])cccc5n4)cc3CC[C@@H]12`, the melting point is 149 to 154 °C. Compound `O=C(CCN1CCC(N2Cc3ccccc3C2=O)CC1)c1ccccc1` returned a melting point of 87 to 90 °C. Take `CC(C)(C)OC(=O)N1CCN(Cc2nc(-c3cc(C(C)(C)C)c(O)c(C(C)(C)C)c3)cs2)CC1`: the melting point lay within 108 to 109 °C.

With `Cc1ccc(C)c2c1CCC2=NNC(N)=Nc1c(Cl)cccc1Cl`, the melting point was > 275 °C. Compound `Cc1cc(-c2ccnn2-c2ccc(S(N)(=O)=O)c(F)c2C(F)F)ccc1-c1cscn1` displayed a melting point of 204 °C.

For the compound `COC=C(C(=O)OC)c1c(OC)ncnc1Oc1cccc(COc2ccccc2C#N)c1`, the melting point was 132 to 135 °C. With `CN(C(=O)C(F)(F)F)C1Cc2ccc(C(=O)CCl)cc2C1` (stereo not drawn) the figure was 130 to 131 °C. With `O=Cc1cccc2ncc(C3CCCCC3)cc12` the figure was 94 to 95 °C; with `O=C(NC1N=C(c2ccccc2F)c2ccccc2NC1=O)c1cc2ccccc2o1` (racemic), 289 to 291 °C; with `C#CCOc1cc(C=O)ccc1OC`, 66 to 67 °C.

`CCCn1c(=O)c2[nH]c(C3CCOC3)nc2n(CCC)c1=O` (stereo not drawn) gave a melting point of 177 to 178 °C. With `CCc1cnc2c(NC(=O)c3c(Cl)cccc3Cl)cccc2c1CN1CCN(C)C1=O` the figure was 202 to 203 °C; with `OCCOc1cccc2c1OCO2`, 56 to 57 °C; with `Nc1sc2c(c1C(=O)c1ccc(Cl)cc1)CCN(C(=O)OCc1ccccc1)C2`, 60 to 62 °C.

As for `O=C(Cn1c(-c2ccc(Br)cc2)nc2cccnc21)Nc1ccccc1Cl`, the melting point lay within 230 to 232 °C. `O=C(O)c1c(Br)ccc(OCc2ccccc2Cl)c1OCc1ccccc1Cl` returned a melting point of 156 to 158 °C. For `CCC1CC2C3CCC(C(C)CC(C)C(=O)O)C3(C)CCC2C2(C)CCC(O)CC12` (stereo not drawn), the melting point is 138 °C. On to `CCC(C(=O)N(C)C)n1nc(-c2ccccc2)c(C)c1C` (stereo not drawn), for which the melting point lay within 119 to 121 °C. `COc1ccccc1Oc1c(OC)nn(C)c1NS(=O)(=O)c1ccc(C(C)(C)C)cc1` displayed a melting point of 188 °C. With `O=C(c1ccc(-c2ccccc2)cc1)N1CCc2cn[nH]c2-c2ncccc21` the figure was 205 to 206 °C; with `CCOc1cccc(CC(=O)O)c1OCCCc1cc(OC(C)C)nn1Cc1ccc(Cl)cc1Cl`, 132 to 133 °C. Turning to `CCOC(=O)CC(=O)c1cc(F)c(OC)nc1Nc1ccc(F)cc1F`, the melting point lay within 148 to 149 °C. With `CC(C)(C)OC(=O)N[C@@H](Cc1ccc(-c2ccccc2)cc1)C(=O)NCCC#N` the figure was 163 to 164 °C; with `COc1nc(C)n2nc(S(=O)(=O)Cl)nc2c1Cl`, 100 to 101 °C; with `CCOC(=O)CCC1CCN(C(=O)[C@H](C)NC(=O)c2ccc(C(O)=NN)cc2)CC1`, 194 to 195 °C. With `Fc1ccc(-n2nnc3cccnc32)c(F)c1` the figure was 132 °C; with `COc1ccc(-c2ccc(Cl)c(C(=O)NCC34CC5CC(CC(C5)C3)C4)c2)c(C(=O)O)c1`, 219 to 221 °C; with `CC1(C)NC(=O)N(CC(CS(=O)(=O)c2ccc(-c3ccc(Cl)cc3)cc2)C(=O)O)C1=O` (stereo not drawn), 242 to 245 °C.

As for `CN(CCCOc1ccc(OC(F)(F)F)cc1)C1CCN(c2ccc(OC[C@@]3(C)Cn4cc([N+](=O)[O-])nc4O3)cc2)CC1`, the melting point fell in the range of 167 to 170 °C. As for `CC(C)(C)c1cc(C=O)cc(Cl)c1O`, the melting point was found to be 123 °C. Consider `CN1C(=O)CC[C@]2(C)c3ccc(C=Cc4ccc5ccccc5n4)cc3CC[C@@H]12`, for which the melting point was 233 to 236 °C. With `CCCCOCCOc1ccc(-c2cnc(N3CCC(COC(C)=O)C3)c(/C=C(\C)C(=O)O)c2)cc1` (stereo not drawn), the melting point fell in the range of 82.2 to 84.2 °C. Compound `Cc1c(SCc2ccco2)ccnc1CSc1ccncc1` came in with a melting point of 126 to 128 °C.

`NC(Cc1ccccc1)c1ccc(Cl)cc1` (stereo not drawn) returned a melting point of 35 to 36 °C.

In turn, `Nc1cccc(NC(=O)C(F)(F)C(F)(F)F)c1` registered a melting point of 86 to 88 °C.

In turn, `C#CCc1c(C)cc(=O)n(O)c1-c1ccccc1` returned a melting point of 200 °C.

Compound `CCCS(=O)(=O)NCC1CC2C=CC1C2` (stereo not drawn) returned a melting point of 51 to 52 °C. Take `Cc1c(N)c(C(C)C)cc(Cc2cc(C(C)C)c(N)c(C)c2Cl)c1Cl`: the melting point lay within 118 to 120 °C. For `Cc1cc(C#N)c(Nc2ccccc2[N+](=O)[O-])s1`, the melting point was 99 to 102 °C. With `O=C(NCc1ccn(-c2cc3c(cc2[N+](=O)[O-])[nH]c(=O)c(=O)n3C2CCCCC2)c1)Nc1ccncc1` the figure was > 200 °C; with `CN(C)c1nc2cc(NC(=O)c3c(C(=O)N4CCCC4)cnn3C)ccn2n1`, 199 to 201 °C. Regarding `CCCNc1ncnc2c1ncn2Cc1c(F)cccc1Cl`, the melting point lay in the range of 166 to 167 °C. With `CN1CCC2(C#N)C(C1)C1CN(C)C2C=C1C(=O)c1ccccc1` (stereo not drawn) the figure was 120 to 139 °C; with `COc1cc(OC)c(-c2csc(NC(=O)c3cc4ccccc4[nH]3)n2)c(OC)n1`, 285 to 287 °C; with `COC(=O)C1CCCN1S(=O)(=O)c1ccc(C)cc1` (racemic), 93 °C. For the compound `CN(N)C(=O)NC1c2ccccc2Oc2ccccc21`, the melting point lay within 173 to 176 °C. For the compound `CC(=O)NC1=NN(c2ccc(Cl)cc2)CC1C` (stereo not drawn), the melting point was 172 to 173 °C. Turning to `CC(C)CNC1=NS(=O)(=O)c2ccc(Cl)cc2N1`, the melting point was in the range of 298 to 301 °C.

In turn, `O=C1NC(=O)C(Cc2ccc(OCC34CC5CC(CC(C5)C3)C4)cc2)S1` (stereo not drawn) registered a melting point of 188 to 191 °C. With `Brc1cnc(Br)c2ccccc12`, the melting point was 95 to 96 °C. With `Cn1cc(-c2cccc(C(F)(F)F)c2)c(=O)c(-n2cncn2)c1` the figure was 181 to 183 °C; with `COc1ccccc1CCc1ccccc1C(=O)O`, 118 to 119 °C. Consider `CN(C(=O)[C@H]1CC[C@@H](c2ccccc2)N1C(=O)OC(C)(C)C)c1ccccc1` (racemic), for which the melting point came to 132 °C.

In turn, `CCCOCCOc1ccc(OCC(O)CNCCNC(=O)N2CCOCC2)cc1` (stereo not drawn) displayed a melting point of 88 °C. `COc1ccc2c(c1)CC(C(N)=O)N2` (stereo not drawn) came in with a melting point of 228 to 229 °C. For the compound `CC(=O)N1CCN(Cc2cnc(-c3cc4cccc(NS(=O)(=O)c5cccs5)c4[nH]3)s2)CC1`, the melting point was in the range of 149 to 150 °C. As for `O=C1CCC2=C(c3ccc(Cl)cc3)c3ccccc3C2N1` (stereo not drawn), the melting point was in the range of 236 to 238 °C.
